Assay results reported in patent US9139577B2, “Sulfoximine substituted quinazolines for pharmaceutical compositions” (Boehringer Ingelheim International GmbH, priority 2013, dated 2015).

Assays:
[1] = target: MNK2a (Homo sapiens (Human), UniProt Q9HBH9); experiment: MNK2a in vitro kinase assay (Assay 2), ADP-Glo; type: biochemical; conditions: read-out: MNK2 IC50
[2] = target: MNK1 (Homo sapiens (Human), UniProt Q9BUB5); experiment: MNK1 in vitro kinase assay (Assay 3), Z'-LYTE; type: biochemical; conditions: for inhibition at 1 µM: compound concentration of 1 μM, read-out: MNK1 % INH
Chain of MNK1 (Q9BUB5 other isoform, or with tags, fused parts or gaps): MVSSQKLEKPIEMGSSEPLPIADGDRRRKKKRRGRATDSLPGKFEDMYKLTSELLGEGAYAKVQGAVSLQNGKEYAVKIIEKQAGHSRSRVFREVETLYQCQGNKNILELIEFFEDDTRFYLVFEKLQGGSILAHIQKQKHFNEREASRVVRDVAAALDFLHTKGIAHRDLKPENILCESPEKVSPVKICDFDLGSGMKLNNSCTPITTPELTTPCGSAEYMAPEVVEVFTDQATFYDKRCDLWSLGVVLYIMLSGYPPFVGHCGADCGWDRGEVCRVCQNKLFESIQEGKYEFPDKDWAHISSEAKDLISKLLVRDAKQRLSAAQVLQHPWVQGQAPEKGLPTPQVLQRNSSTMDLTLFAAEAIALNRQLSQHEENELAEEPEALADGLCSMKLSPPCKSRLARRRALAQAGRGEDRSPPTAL
Excerpt: C. MNK1 In vitro Kinase Assay (Assay 3)
MNK1 Data can be obtained from the MNK1 Z′-LYTE® assay. The MNK1 Z′-LYTE® screening protocol and assay conditions are also described on www.invitrogen.com.
The assay is described as follows:
The Z′-LYTE® biochemical assay employs a fluorescence-based, coupled-enzyme format and is based on the differential sensitivity of phosphorylated and non-phosphorylated peptides to proteolytic cleavage. The peptide substrate is labeled with two fluorophores—one at each end—that make up a FRET pair.
In the primary reaction, the kinase transfers the gamma-phosphate of ATP to a single tyrosine, serine or threonine residue in a synthetic FRET-peptide. In the secondary reaction, a site-specific protease recognizes and cleaves non-phosphorylated FRET-peptides. Phosphorylation of FRET-peptides suppresses cleavage by the Development Reagent. Cleavage disrupts FRET between the donor (i.e., coumarin) and acceptor (i.e., fluorescein) fluorophores on the FRET-peptide, whereas uncleaved, phosphorylated FRET-peptides maintain FRET. A ratiometric method, which calculates the ratio (the Emission Ratio) of donor emission to acceptor emission after excitation of the donor fluorophore at 400 nm, is used to quantitate reaction progress, as shown in the equation below.
ASSAY SETUP: The inhibition of kinase activity of MNK1a was assessed using pre-activated GST-MNK1a. The 2×MKNK1 (MNK1) mixture is prepared in 50 mM HEPES pH 7.5, 0.01% BRIJ-35, 10 mM MgCl2, 4 mM MnCl2, 1 mM EGTA, 2 mM DTT.
The Test Compounds are screened in 1% DMSO (final) in the well.
All Peptide/Kinase Mixtures are diluted to a 2× working concentration in the MNK1 Kinase Buffer.
All ATP Solutions are diluted to a 4× working concentration in Kinase Buffer (50 mM HEPES pH 7.5, 0.01% BRIJ-35, 10 mM MgCl2, 1 mM EGTA).
Development Reagent Solution:
The Development Reagent is diluted in Development Buffer
1. 2.5 μL—4× Test Compound
2. 5 μL—2× Peptide/Kinase Mixture
5. 60-minute Kinase Reaction incubation at room temperature
6. 5 μl—Development Reagent Solution
8. 60-minute Development Reaction incubation at room temperature
9. Read on fluorescence plate reader and analyze the data
The following equations are used for each set of data points: […]
Correction for Background Fluorescence: FlSample-FlTCFl Ctl
% Phosphorylation (% Phos): 1−((Emission Ratio×F100%)−C100%)/((C0%−C100%)+[Emission Ratio×(F100%−F0%)])*100%
% Inhibition: 1−(% PhosSample/% Phos0% Inhibition Ctl)*100
Fl=Fluorescence Intensity
C100%=Average Coumarin emission signal of the 100% Phos. Control
C0%=Average Coumarin emission signal of the 0% Phos. Control
F100%=Average Fluorescein emission signal of the 100% Phos. Control
F0%=Average Fluorescein emission signal of the 0% Phos. Control
SelectScreen® Kinase Profiling Service uses XLfit from IDBS.

Chain of MNK2a (Q9HBH9 whole entry): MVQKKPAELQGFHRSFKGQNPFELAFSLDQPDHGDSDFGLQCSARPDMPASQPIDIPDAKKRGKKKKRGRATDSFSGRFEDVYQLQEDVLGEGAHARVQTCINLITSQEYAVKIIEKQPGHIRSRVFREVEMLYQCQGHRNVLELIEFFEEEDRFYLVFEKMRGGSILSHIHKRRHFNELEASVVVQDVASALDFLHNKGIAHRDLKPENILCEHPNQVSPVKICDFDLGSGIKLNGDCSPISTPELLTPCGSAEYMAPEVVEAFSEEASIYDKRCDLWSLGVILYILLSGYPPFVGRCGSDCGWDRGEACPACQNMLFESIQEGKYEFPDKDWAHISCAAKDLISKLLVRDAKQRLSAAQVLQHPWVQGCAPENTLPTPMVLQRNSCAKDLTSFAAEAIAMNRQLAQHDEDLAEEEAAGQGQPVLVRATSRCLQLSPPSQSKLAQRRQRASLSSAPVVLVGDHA

| Structure (SMILES) | IC50 [1] | inhibition at 1 µM [2] | IC50 [2] |
| --- | --- | --- | --- |
| C#CC(C)Oc1cc(F)ccc1Nc1ncnc2cc(N=S(C)(C)=O)cc(C)c12 (centres unmarked) [Example 3.016] | 2 nM | 90% | – |
| CCOC(Oc1cc(F)ccc1Nc1ncnc2cc(N=S(C)(C)=O)cc(C)c12)C(F)(F)F (centres unmarked) [Example 1.023] | 8 nM | 65% | – |
| CCOC(Oc1ncccc1Nc1ncnc2cc(N=S(C)(C)=O)cc(C)c12)C(F)(F)F (centres unmarked) [Example 1.008] | 8 nM | 63% | – |
| Cc1cc(COc2cc(F)ccc2Nc2ncnc3cc(N=S(C)(C)=O)cc(C)c23)no1 [Example 3.009] | 7 nM | 95% | – |
| Cc1cc(N=S(C)(C)=O)cc2ncnc(Nc3ccc(F)cc3OC(C)COC3CCOC3)c12 (centres unmarked) [Example 3.028] | 6 nM | 92% | – |
| Cc1cc(N=S(C)(C)=O)cc2ncnc(Nc3ccc(F)cc3OCC3(C#N)CCC3)c12 [Example 3.014] | 8 nM | 78% | – |
| Cc1cc(N=S(C)(C)=O)cc2ncnc(Nc3ccc(F)cc3OC[C@H]3CNC(=O)O3)c12 [Example 3.003] | 2 nM | 73% | – |
| Cc1cc(N=S(C)(C)=O)cc2ncnc(Nc3ccc(F)cc3OC(C)C(C)(C)C#N)c12 (centres unmarked) [Example 2.010] | 11 nM | 76% | – |
| CCC(C)Oc1cc(F)ccc1Nc1ncnc2cc(N=S(C)(C)=O)cc(C)c12 (centres unmarked) [Example 3.042] | 15 nM | 78% | – |
| CS(C)(=O)=Nc1cc(F)c2c(Nc3ccc(F)cc3OC(CF)CF)ncnc2c1 [Example 1.018] | 6 nM | 93% | – |
| C[C@@H](Oc1cc(F)ccc1Nc1ncnc2cc(N=S(C)(C)=O)cc(F)c12)C(=O)NCC(F)(F)F [Example 3.049] | 2 nM | – | 68 nM |
| Cc1cc(N=S(C)(C)=O)cc2ncnc(Nc3ccc(F)cc3OCC3CC3(F)F)c12 (centres unmarked) [Example 3.008] | 5 nM | 89% | – |
| Cc1cc(N=S(C)(C)=O)cc2ncnc(Nc3cccnc3OC(C)C)c12 [Example 2.017] | 2 nM | 90% | – |
| Cc1cc(N=S2(=O)CCC2)cc2ncnc(Nc3ccc(F)cc3O[C@H](C)C(F)(F)F)c12 [Example 2.006] | 2 nM | – | 71 nM |
| Cc1cc(N=S2(=O)CCCC2)cc2ncnc(Nc3ccc(F)cc3OC(CF)CF)c12 [Example 1.011] | 2 nM | – | 34 nM |
| CCOC(=O)[C@@H](C)Oc1cc(F)ccc1Nc1ncnc2cc(N=S3(=O)CCCC3)cc(C)c12 [Example 3.012] | 23 nM | 100% | – |
| Cc1cc(N=S(C)(C)=O)cc2ncnc(Nc3ccc(F)cc3OC(C)C)c12 [Example 2.011] | 2 nM | 94% | – |
| Cc1cc(N=S(C)(C)=O)cc2ncnc(Nc3ccc(F)cc3OC(C)c3nccs3)c12 (centres unmarked) [Example 3.035] | 37 nM | 89% | – |
| O=S1(=Nc2cc(C(F)(F)F)c3c(Nc4ccc(F)cc4OC(CF)CF)ncnc3c2)CCCC1 [Example 1.004] | 3 nM | 79% | – |
| CCS(C)(=O)=Nc1cc(Cl)c2c(Nc3cccnc3O[C@H](C)c3cc(C)no3)ncnc2c1 (some centres unmarked) [Example 1.005] | 2 nM | 98% | – |
| Cc1cc(N=S(C)(C)=O)cc2ncnc(Nc3ccc(F)cc3OCC3COCCO3)c12 (centres unmarked) [Example 3.044] | 63 nM | 49% | – |
| Cc1cc(N=S2(=O)CCCC2)cc2ncnc(Nc3ccc(F)cc3OC(C)C(C)(C)O)c12 (centres unmarked) [Example 2.001] | 5 nM | – | 228 nM |
| CS(C)(=O)=Nc1cc(C(F)(F)F)c2c(Nc3ccc(F)cc3OC(CF)CF)ncnc2c1 [Example 1.002] | 6 nM | 59% | – |
| Cc1cc([C@@H](C)Oc2ncccc2Nc2ncnc3cc(N=S4(=O)CCCC4)cc(C)c23)on1 [Example 2.009] | 1 nM | – | 49 nM |

Continued, values first:

| IC50 [1] | inhibition at 1 µM [2] | IC50 [2] | Structure (SMILES) |
| --- | --- | --- | --- |
| 3 nM | 99% | – | Cc1cc(N=S(C)(C)=O)cc2ncnc(Nc3ccc(F)cc3O[C@H](C)C(=O)NCCO)c12 [Example 4.029] |
| 4 nM | 86% | – | CCN(C)C(=O)[C@@H](C)Oc1cc(F)ccc1Nc1ncnc2cc(N=S(C)(C)=O)cc(C)c12 [Example 4.068] |
| 2 nM | – | 39 nM | CCNC(=O)N1CCS(=O)(=Nc2cc(C)c3c(Nc4ccc(F)cc4O[C@H](C)c4cc(C)no4)ncnc3c2)CC1 [Example 5.008] |
| 9 nM | 90% | – | Cc1cc(N=S2(=O)CCCC2)cc2ncnc(Nc3ccc(F)cc3O[C@H](C)C(=O)N[C@@H]3CCC[C@@H]3O)c12 [Example 4.075] |
| 29 nM | 78% | – | CCNC(=O)NC[C@@H](C)Oc1cc(F)ccc1Nc1ncnc2cc(N=S(C)(C)=O)cc(C)c12 [Example 5.006] |
| 2 nM | 99% | – | Cc1cc(N=S(C)(C)=O)cc2ncnc(Nc3ccc(F)cc3O[C@H](C)C(=O)NC(C)C)c12 [Example 4.060] |
| 6 nM | 93% | – | Cc1cc(N=S(C)(C)=O)cc2ncnc(Nc3ccc(F)cc3O[C@H](C)C(=O)NCC(C)(C)O)c12 [Example 4.069] |
| 27 nM | 78% | – | Cc1cc(N=S(C)(C)=O)cc2ncnc(Nc3ccc(F)cc3O[C@H](C)C(=O)N[C@@H]3CCC[C@@H]3O)c12 [Example 4.038] |
| 1 nM | – | 55 nM | Cc1cc(N=S(C)(C)=O)cc2ncnc(Nc3ccc(F)cc3O[C@H](C)C(=O)NCC(F)(F)F)c12 [Example 4.071] |
| 3 nM | 98% | – | Cc1cc(N=S2(=O)CCCC2)cc2ncnc(Nc3ccc(F)cc3O[C@H](C)C(=O)NCCO)c12 [Example 4.072] |
| 35 nM | 74% | – | CC(=O)NC[C@@H](C)Oc1cc(F)ccc1Nc1ncnc2cc(N=S(C)(C)=O)cc(C)c12 [Example 5.009] |
| 99 nM | 27% | – | Cc1cc(N=S(C)(C)=O)cc2ncnc(Nc3ccc(F)cc3O[C@H](C)CNS(=O)(=O)C(F)(F)F)c12 [Example 5.011] |
| 1 nM | 97% | – | Cc1cc(N=S(C)(C)=O)cc2ncnc(Nc3ccc(F)cc3O[C@@H](C)CNS(C)(=O)=O)c12 [Example 5.001] |
| 3 nM | 96% | – | Cc1cc(N=S2(=O)CCCC2)cc2ncnc(Nc3ccc(F)cc3O[C@H](C)C(=O)NC3CCOCC3)c12 [Example 4.014] |
| 2 nM | 97% | – | Cc1cc(N=S2(=O)CCCC2)cc2ncnc(Nc3ccc(F)cc3O[C@H](C)C(=O)NCC(C)O)c12 (some centres unmarked) [Example 4.008] |
| 8 nM | 82% | – | Cc1cc(N=S(C)(C)=O)cc2ncnc(Nc3ccc(F)cc3O[C@H](C)C(=O)N(C)C(C)C)c12 [Example 4.064] |
| 1 nM | 100% | – | CCC(C)NC(=O)[C@@H](C)Oc1cc(F)ccc1Nc1ncnc2cc(N=S3(=O)CCCC3)cc(C)c12 (some centres unmarked) [Example 4.050] |
| 2 nM | 97% | 14 nM | C[C@@H](Oc1cc(F)ccc1Nc1ncnc2cc(N=S3(=O)CCC3)cc(F)c12)C(=O)NCC(F)(F)F [Example 4.100] |
| 10 nM | 56% | – | Cc1cc(N=S2(=O)CCCC2)cc2ncnc(Nc3ccc(F)cc3O[C@H](C)C(=O)N(C)CCc3ccccc3)c12 [Example 4.063] |
| 5 nM | 82% | – | Cc1cc(N=S2(=O)CCCC2)cc2ncnc(Nc3ccc(F)cc3O[C@H](C)C(=O)N(C)C)c12 [Example 4.051] |
| 2 nM | 98% | – | CCC(C)NC(=O)[C@@H](C)Oc1cc(F)ccc1Nc1ncnc2cc(N=S(C)(C)=O)cc(C)c12 (some centres unmarked) [Example 4.048] |
| 9 nM | 93% | – | Cc1cc(N=S(C)(C)=O)cc2ncnc(Nc3ccc(F)cc3O[C@H](C)C(=O)N[C@@H]3CCC[C@H]3O)c12 [Example 4.065] |
| 2 nM | 102% | – | Cc1cc(N=S2(=O)CCCC2)cc2ncnc(Nc3ccc(F)cc3O[C@H](C)C(=O)NC3CCC3)c12 [Example 4.015] |
